Source: US11903992B2, “Composition comprising lidocaine, l-carnosine and dexpanthenol” (Cellix Bio Private Limited, priority 2021, dated 2024)

Assays:
[1] = Stability observations during development of the formulation; type: physicochemical; settings: during development of the oral rinse formulation
Excerpt: In an embodiment, the composition is formulated as an oral rinse formulation. It could also be noted during development of the formulation that L-Carnosine tends to increase the pH of the composition to about 8.5, which tend to increase the degradation of lidocaine. […] During the experimentation, it could be noted that presence of a buffer (e.g. a citrate buffer) and an anti-oxidant (e.g. sodium metabisulfite) in the composition, while maintaining pH of the resultant composition/formulation around 6.5±1 (i.e. ranging from about 5.5 to about 7.5), preferably at 6.5±0.5 and more preferably, at 6.5±0.2 affords dramatic improvement in the shelf life of the composition/formulation.

[2] = pH of the formulation (pH meter); type: physicochemical; settings: during development of the formulation; tends to increase degradation of lidocaine

| SMILES | stability observation of the ingredient [1] | pH of the composition as increased by L-Carnosine [2] |
| --- | --- | --- |
| CC(C)(CO)[C@@H](O)C(=O)NCCCO [Dexpanthenol] | requires neutral pH for stability | – |
| NCCC(=O)N[C@@H](Cc1cnc[nH]1)C(=O)O [L-Carnosine] | sensitive to oxygen tend to degrade | about 8.5 |
